The values below come from US9351963B2, “Defensin-like molecules as novel antimicrobial agents” (UNIVERSITY OF MARYLAND, BALTIMORE, priority 2010, dated 2016).

The test system of test [1] is S. aureus ATCC 29213. The experiment in a line: Murine peritoneal sepsis model. It counts as in vivo, C57BL/6J mice. As to conditions: mouse, in vivo. How it is done:
Adult C57BL/6J mice (˜18 grams, 8-10 weeks old) were used for all experiments. Mice were obtained from the Jackson Laboratory (Bar Harbour, Me., USA) and housed in the IHV SPC animal core facility. Mice were fed standard chow (Harlan Laboratories) and water ad libitum. To assess the protective potency of defensin mimetic BAS00127538, groups of 5 mice were inoculated intraperitoneally ˜10^7 CFU/mL of S. aureus ATCC 29213 in 500 μL saline solution/25% DMSO plus 4.5% (w/v) porcine gastric mucin (Sigma Chemical Co., St Louis, Mo.). Infected animals (n=5) were subsequently treated by intra-peritoneal injection 1 and 4 hours post-infection with 2.5 mg/kg of compound in 100 μL sterile saline solution plus 25% DMSO (V/V), vancomycin/lysostaphin (5 mg/kg, saline solution/25% DMSO) or vehicle (saline solution/25% DMSO) as positive and negative controls respectively. Animals were closely observed during a period of 24 hours and mice that show signs of severe sepsis were humanely euthanized. Blood samples were collected by retro-orbital puncture at the indicated intervals post-infection using lithium-heparin polystyrene tubes to prevent coagulation. Spleens were harvested aseptically, weighed and homogenized in 500 μl of sterile saline solution using an IKA T10 basic disperser (IKA, Wilmington N.C.). Whole blood samples and spleen homogenates were serially diluted and plated onto LB agar plates. Bacterial counts were determined following 24 h incubation at 37° C. and expressed as CFU per milliliter for blood and CFU per gram for spleen.
Next, a murine model for sepsis was established to evaluate the efficacy of the lead defensin mimetics as antibiotic agents in vivo. […] Mice (n=5) were inoculated intraperitoneally with S. aureus 29213 and treated 1 h and 4 h post-infection with compound BAS00127538 at 2.5 mg/kg intraperitoneally Animals were monitored for survival and blood and spleen samples were collected. Bacterial counts were determined and compared to control treatment with vancomycin/lysostaphin as measures of efficacy (FIG. 6).

The test system of test [2] is Staphylococcus aureus ATCC 29213. The experiment in a line: Antagonization assay of antibacterial activity against S. aureus. As to conditions: for Effect of pre-incubation with D-Ala (Diacetyl-Lys-D-Ala-D-Ala) on killing of S. aureus / Effect of pre-incubation with D-Lac (diacetyl-Lys-D-ala-D-Lac) on killing of S. aureus: 1:200 molar ratio, 30 min. It counts as cell-based. Here is the method: Antagonization of the antibacterial activity of defensins against Staphylococcus aureus ATCC 29213 was carried out in a 96-well turbidimetric assay essentially as described previously (Erickson et al.). Defensins (50 μM final concentration) were pre-incubated with the following compounds for 30 min at RT: 1) 3-Lipid II at 1:1, 1:2.5 and 1:5 defensin:Lipid II molar ratios; or; 2) DiAcetyl-Lys-D-Alanine-D-Alanine and DiAcetyl-Lys-D-Alanine-D-Lac at 1:200 molar ratios. Additionally, vancomycin (500 μM) was pre-incubated separately with D-Ala and D-Lac at a 1:200 molar ratio. Following incubation, solutions were diluted two-fold in ten steps and bacteria were added. Bacterial cells were exposed to HNP1 or vancomycin for 30 min and to HD-5 for 60 min in all studies. Defensin activity was neutralized by the addition of Mueller Hinton broth. Bacterial growth was monitored for 12 hours and data were analyzed as described (Erickson et al.).
Next, the inventors examined whether the antibacterial activity of HNP-1 could be antagonized by soluble Lipid II as a measure for functional interaction. HNP-1 (50 μM) was pre-incubated with 3-Lipid II at varying molar ratios and killing of S. aureus was determined using the vCC protocol (Erickson et al.) (FIG. 3). […] Survival curves of S. aureus ATCC 29213 exposed to HNP1 (at concentrations varying two-fold from 50 to 1.25 μM). Defensin peptide was pre-incubated with 3-Lipid II at varying molar ratios for 30 min prior to addition of bacteria. Bacteria were subsequently exposed to HNP-1 for 30 min. Each curve is the mean of two separate experiments (±S.D.). Points scored as zero survival could not be plotted.
The D-Ala-D-Ala motif in the pentapeptide is the predominant binding site for vancomycin, a drug of “last resort” for many multi-drug resistant Gram-positive infections. To examine if the interaction of HNP-1 with Lipid II overlaps with the vancomycin binding site, antagonization assays were performed. Diacetyl-Lys-D-Ala-D-Ala (D-Ala) was used as […] and the non-specific peptide diacetyl-Lys-D-ala-D-Lac (D-Lac) as a control. Both vancomycin and HNP-1 were pre-incubated at a 1:200 molar ratio with both compounds for 30 min, similar to experiments with soluble Lipid II (FIG. 3). Subsequently, the inventors determined any antagonizing effects on the killing of S. aureus (FIG. 4). […] In particular, survival curves of S. aureus ATCC 29213 exposed to HNP1 (upper panel) at concentrations varying two-fold from 50 to 1.25 μM or to vancomycin (lower panel) at concentrations varying two-fold from 2 to 0.0125 μM. HNP-1 and vancomycin were pre-incubated with D-ala or D-lac at a 1:200 molar ratio for 30 min prior to addition of bacteria. Bacteria were subsequently exposed to HNP-1 or vancomycin for 30 min. Each curve is the mean of two separate experiments (±S.D.). Points scored as zero survival could not be plotted.

Test [3] is described as follows: Surface Plasmon Resonance binding to immobilized 3-Lipid II (BIAcore). The following applies: SPR, 10 μM, room temperature, 40 RUs 3-Lipid II. Here is the method: Short-chain water-soluble Lipid II containing a lipid tail of three isoprene units was generated and purified essentially as described (Breukink, E., van Heusden, H. E., Vollmerhaus, P. J., Swiezewska, E., Brunner, L., Walker, S., Heck, A. J., and de Kruijff, B. (2003) J Biol Chem 278, 19898-19903). Typically, M. flavus vesicles (120 μmol lipid-Pi) were incubated together with 500 μmol UDP-GlcNAc, 500 μmol UDP-MurNAC-pentapeptide and 400 μmol farnesyl phosphate (3-P) in 100 mM Tris-HCl pH 8.0, 5 mM MgCl2. The incubation lasted two hours at room temperature for 3-P. The synthesis of 3-Lipid II was followed using RP-8 reversed phase TLC (Merck) developed in 75% methanol. For purification, the membranes were removed by centrifugation at 40,000×g and the supernatant was collected and loaded on a C18 HPLC column and eluted with a linear gradient from 50 mM ammonium bicarbonate to 100% methanol in 30 minutes. Farnesyl-Lipid II (3-Lipid II) eluted at approximately 60% methanol. Its identity was confirmed by mass spectroscopy.
Surface Plasmon Resonance binding experiments were carried out on a BIAcore T100 system (BIAcore Inc., Piscataway, N.Y.) at 25° C. The assay buffer was 10 mM HEPES, 150 mM NaCl, 0.05% surfactant P20, pH 7.4 (±3 mM EDTA) supplemented with 10% DMSO. […] For initial determination of binding, defensin mimetics were introduced into the flow-cells (30 μl/min) in the running buffer at 10 μM. Resonance signals were corrected for nonspecific binding by subtracting the background of the control flow-cell. After each analysis, the sensor chip surfaces were regenerated with 50 mM NaOH for 30 s at a flow rate 100 μl/min, and equilibrated with the buffer prior to next injection. For binding kinetics studies, binding isotherms were analyzed with manufacturer-supplied software for BIAcore T100.

The subject of test [4] is Staphylococcus aureus ATCC 29213. The following applies: previously reported (Wei et al., J Biol Chem 285); cited from earlier work.
For test [5], the system named is Escherichia coli ATCC 25922. As to the kind of experiment: 96-well turbidimetric antibacterial killing assay, E. coli. The test is classed as cell-based. The following applies: E. coli ATCC 25922, 120 min exposure. How it is done: The antibacterial activity of defensin mimetics against Staphylococcus aureus ATCC 29213 and Escherichia coli 25922 was carried out in a 96-well turbidimetric assay essentially as described (Ericksen, B., Wu, Z., Lu, W., and Lehrer, R. I. (2005) Antimicrob Agents Chemother 49, 269-275) with the following modifications: compounds were exposed for 30 min to […] prior to addition of […] in 10 mM phosphate buffer containing 5% DMSO. Bacterial growth was monitored for 12 hours and data were analyzed as described (Ericksen, et al). Determination of MICs was performed by Micromyx, LLC (Kalamazoo, Mich.) according to CLSI standards (CLSI. (2009) Methods for Dilution Antimicrobial Susceptibility Tests for Bacteria That Grow Aerobically; Approved Standard—Eighth Edition.)
The inventors have previously reported on the antibacterial activity of HNP1 and all of its structurally uncompromised single alanine mutants against S. aureus (Wei, G., Pazgier, M., de Leeuw, E., Rajabi, M., Li, J., Zou, G., Jung, G., Yuan, W., Lu, W. Y., Lehrer, R. I., and Lu, W. J Biol Chem 285, 16275-16285). […] If these residues are indeed important for Lipid II binding, one would expect that replacement by alanine will not affect killing of Gram-negative bacteria. […] In particular, FIG. 12 depicts killing of E. coli by HNP-1 Lipid II single alanine mutants. Survival curves of E. coli ATCC 25922 exposed to HNP-1 or HNP-1 single alanine mutants at concentrations varying two-fold from […]. Bacteria were exposed to defensin peptides for 120 min. Each curve is the mean of two separate experiments (±S.D.). Points scored as zero survival could not be plotted.

Regarding `CC[n+]1c(/C=C2C=C(/C=C/N(C)c3ccccc3)CC(C)(C)C/2)sc2ccccc21` [Compound 4090-1978, 2-{[(1E)-5,5-dimethyl-3-[(E)-2-[methyl(phenyl)amino]ethenyl]cyclohex-2-en-1-ylidene]methyl}-3-ethyl-1,3-benzothiazol-3-ium], the “Efficacy in vivo in a murine model for sepsis” value (“Efficacy in vivo” for short) in test [1] is “proven effective”.
Consider “HNP-1: α-defensin Human Neutrophil Peptide 1, chemically synthesized, wild-type”, for which the “Bactericidal activity after pre-incubation with 3-Lipid II” value in test [2] (1:1 molar ratio, 30 min pre-incubation, S. aureus) is recorded as “reduced by one order of magnitude”. In addition, in test [2], the “Effect of pre-incubation with D-Ala (Diacetyl-Lys-D-Ala-D-Ala) on killing of S. aureus” value is listed as “not competitively inhibited” and the “Effect of pre-incubation with D-Lac (diacetyl-Lys-D-ala-D-Lac) on killing of S. aureus” value was “not competitively inhibited”.
Regarding `CC[n+]1c(/C=C2C=C(/C=C/C(C)=C\N(C)C)CC(C)(C)C/2)sc2ccccc21` [Compound 4090-1979, 2-{[(1E)-3-[(1E,3Z)-4-(dimethylamino)-3-methylbuta-1,3-dien-1-yl]-5,5-dimethylcyclohex-2-en-1-ylidene]methyl}-3-ethyl-1,3-benzothiazol-3-ium], the “Efficacy in vivo” value in test [1] is “proven effective”.
“Arg5: HNP-1 single alanine mutant, Arg5 replaced by alanine”: in test [3], the “Binding of HNP-1 single alanine mutants to Lipid II compared to wild-type HNP-1” value (shortened to “Binding … compared to wild-type HNP-1”) is “did not affect binding”.
For the compound “Leu25: HNP-1 single alanine mutant, Leu25 replaced by alanine”, the “Killing of S. aureus by HNP-1 single alanine mutants” value in test [4] is “severely compromised”. In addition, the “Binding … compared to wild-type HNP-1” value in test [3] is reported as “significant reduction of binding”. Also, the “Bactericidal activity against E. coli relative to wild-type HNP-1” value in test [5] is listed as “comparable to the wild-type peptide”.
On to `CCCCC[n+]1c(/C=C2\Sc3cc(NC(C)=O)ccc3N2CC)ccc2ccccc21` [Compound 4890-0291, N-[(2Z)-3-ethyl-2-[(1-pentylquinolin-1-ium-2-yl)methylidene]-1,3-benzothiazol-6-yl]acetamide], for which the “Efficacy in vivo” value in test [1] is “proven effective”.
On the same count and under the same terms, the value for `Oc1ccccc1Oc1c(F)c(F)c(-c2c(F)c(F)c(Oc3ccccc3O)c(F)c2F)c(F)c1F` [Compound 1611-0203, 2-{2,3,5,6-tetrafluoro-4-[2,3,5,6-tetrafluoro-4-(2-hydroxyphenoxy)phenyl]phenoxy}phenol] was “proven effective”.
As to `c1ccc(-c2nc(N(c3ccccc3)c3ccccc3)s[n+]2-c2ccccc2)cc1` [Compound 1492-0330, 5-(diphenylamino)-2,3-diphenyl-1,2$1^5,4-thiadiazol-2-ylium], the “Efficacy in vivo” value in test [1] is on record as “proven effective”.
Take “Ile10: HNP-1 single alanine mutant, Ile10 replaced by alanine”: the “Binding … compared to wild-type HNP-1” value in test [3] was “did not affect binding”.
Take `CN[C@H](CC(C)C)C(=O)N[C@H]1C(=O)N[C@@H](CC(N)=O)C(=O)N[C@H]2C(=O)N[C@H]3C(=O)N[C@H](C(=O)N[C@H](C(=O)O)c4cc(O)cc(O)c4-c4cc3ccc4O)[C@H](O)c3ccc(c(Cl)c3)Oc3cc2cc(c3O[C@@H]2O[C@H](CO)[C@@H](O)[C@H](O)[C@H]2O[C@H]2C[C@](C)(N)[C@H](O)[C@H](C)O2)Oc2ccc(cc2Cl)[C@H]1O` [Vancomycin, vancomycin]: in test [2], the “Effect of pre-incubation with D-Ala (Diacetyl-Lys-D-Ala-D-Ala) on killing of S. aureus” value is reported as “specifically inhibited the killing” and the “Effect of pre-incubation with D-Lac (diacetyl-Lys-D-ala-D-Lac) on killing of S. aureus” value is recorded as “not altered”. Besides, in test [2] (without antagonist, 30 min exposure), the “Killing of S. aureus” value is “very effectively”.
In the case of “Gly23: HNP-1 single alanine mutant, Gly23 replaced by alanine”, the “Binding … compared to wild-type HNP-1” value in test [3] is on record as “did not affect binding”.
Turning to “HNP-1 R24A mutant: HNP-1 single alanine mutant, Arg24 replaced by alanine”, the “Binding … compared to wild-type HNP-1” value in test [3] was “maintained significant binding”.
For the compound `CN(C)c1ccc(/C=C/c2cc(C(C)(C)C)[o+]c(C(C)(C)C)c2)cc1` [Compound 1493-0289, 2,6-di-tert-butyl-4-[(E)-2-[4-(dimethylamino)phenyl]ethenyl]-1$1^4-pyran-1-ylium], the “Efficacy in vivo” value in test [1] is “proven effective”.
